Experiments:
Format in all cases: in vivo
[1] = test system: boll weevil (Anthonomus grandis); assay: Action on boll weevil, eggs on insect diet in 96-well microtiter plates; details: 120 h, egg and larval mortality after 5 days, read-out: mortality in comparison with untreated controls
Protocol: For evaluating control of boll weevil (Anthonomus grandis) the test unit consisted of 96-well-microtiter plates containing an insect diet and 5-10 A. grandis eggs.
The compounds were formulated using a solution containing 75% (v/v) water and 25% (v/v) DMSO. Different concentrations of formulated compounds were sprayed onto the insect diet at 5 μl, using a custom built micro atomizer, at two replications.
After application, microtiter plates were incubated at about 25+1° C. and about 75+5% relative humidity for 5 days. Egg and larval mortality was then visually assessed.

[2] = test system: Diamond Back Moth (Plutella xylostella); assay: Action on diamond back moth, cabbage leaf dip; details: foliar, 3rd instar larvae, 72 hours after treatment, read-out: mortality in comparison with untreated controls
Protocol: The active compound is dissolved at the desired concentration in a mixture of 1:1 (v/v) distilled water:acetone. Surfactant (Kinetic® HV) is added at a rate of 0.01% (v/v). The test solution is prepared at the day of use.
Leaves of cabbage were dipped in test solution and air-dried. Treated leaves were placed in petri dishes lined with moist filter paper and inoculated with ten 3rd instar larvae. Mortality was recorded 72 hours after treatment. Feeding damages were also recorded using a scale of 0-100%.

[3] = test system: tobacco budworm (Heliothis virescens); assay: Action on tobacco budworm, eggs on insect diet in 96-well microtiter plates; details: 120 h, egg and larval mortality after 5 days, read-out: mortality in comparison with untreated controls
Protocol: For evaluating control of tobacco budworm (Heliothis virescens) the test unit consisted of 96-well-microtiter plates containing an insect diet and 15-25 H. virescens eggs.
The compounds were formulated using a solution containing 75% v/v water and 25% v/v DMSO. Different concentrations of formulated compounds were sprayed onto the insect diet at 10 μl, using a custom built micro atomizer, at two replications.
After application, microtiter plates were incubated at about 28+1° C. and about 80+5% relative humidity for 5 days. Egg and larval mortality was then visually assessed.

[4] = test system: yellow fever mosquito (Aedes aegypti); assay: whole plant or invertebrate; details: 48 h, larval mortality visually assessed after 2 days, read-out: mortality in comparison with untreated controls
Protocol: For evaluating control of yellow fever mosquito (Aedes aegypti) the test unit consisted of 96-well-microtiter plates containing 200 μl of tap water per well and 5-15 freshly hatched A. aegypti larvae.
The active compounds or mixtures were formulated using a solution containing 75% (v/v) water and 25% (v/v) DMSO. Different concentrations of formulated compounds or mixtures were sprayed onto the insect diet at 2.5 μl, using a custom built micro atomizer, at two replications. For experimental mixtures in these tests identical volumes of both mixing partners at the desired concentrations respectively, were mixed together.
After application, microtiter plates were incubated at 28±1° C., 80±5% RH for 2 days. Larval mortality was then visually assessed.

[5] = test system: Southern Armyworm (Spodoptera eridania), 2nd Instar Larvae; assay: Action on southern armyworm, sprayed lima bean plants; details: 96 h, 2nd instar larvae on lima bean, 4 days after treatment, read-out: mortality in comparison with untreated controls
Protocol: The active compounds were formulated by a Tecan liquid handler in 100% cyclohexanone as a 10,000 ppm solution supplied in tubes. The 10,000 ppm solution was serially diluted in 100% cyclohexanone to make interim solutions. These served as stock solutions for which final dilutions were made by the Tecan in 50% acetone:50% water (v/v) into 10 or 20 ml glass vials. A nonionic surfactant (Kinetic®) was included in the solution at a volume of 0.01% (v/v). The vials were then inserted into an automated electrostatic sprayer equipped with an atomizing nozzle for application to plants/insects.
Lima bean plants (variety Sieva) were grown 2 plants to a pot and selected for treatment at the 1st true leaf stage. Test solutions were sprayed onto the foliage by an automated electrostatic plant sprayer equipped with an atomizing spray nozzle. The plants were dried in the sprayer fume hood and then removed from the sprayer. Each pot was placed into perforated plastic bags with a zip closure. About 10 to 11 armyworm larvae were placed into the bag and the bags zipped closed. Test plants were maintained in a growth room at about 25° C. and about 20-40% relative humidity for 4 days, avoiding direct exposure to fluorescent light (24 hour photoperiod) to prevent trapping of heat inside the bags. Mortality and reduced feeding were assessed 4 days after treatment, compared to untreated control plants.

[6] = test system: Orchid Thrips (Dichromothrips corbetti); assay: Action on orchid thrips, floral-immersion technique; details: adult thrips, 72 hours after treatment, read-out: mortality in comparison with untreated controls
Protocol: Dichromothrips corbetti adults used for bioassay were obtained from a colony maintained continuously under laboratory conditions. For testing purposes, the test compound is diluted in a 1:1 mixture of acetone:water (vol:vol), plus Kinetic® HV at a rate of 0.01% v/v.
Thrips potency of each compound was evaluated by using a floral-immersion technique. All petals of individual, intact orchid flowers were dipped into treatment solution and allowed to dry in Petri dishes. Treated petals were placed into individual re-sealable plastic along with about 20 adult thrips. All test arenas were held under continuous light and a temperature of about 28° C. for duration of the assay. After 3 days, the numbers of live thrips were counted on each petal. The percent mortality was recorded 72 hours after treatment.

[7] = test system: Silverleaf Whitefly (Bemisia argentifoli) (Adults); assay: Action on silverleaf whitefly adults, sprayed cotton plants; details: Bemisia argentifolii, 72 h, 3 days after treatment, read-out: mortality in comparison with untreated controls
Protocol: The active compounds were formulated by a Tecan liquid handler in 100% cyclohexanone as a 10,000 ppm solution supplied in tubes. The 10,000 ppm solution was serially diluted in 100% cyclohexanone to make interim solutions. These served as stock solutions for which final dilutions were made by the Tecan in 50% acetone:50% water (v/v) into 5 or 10 ml glass vials. A nonionic surfactant (Kinetic®) was included in the solution at a volume of 0.01% (v/v). The vials were then inserted into an automated electrostatic sprayer equipped with an atomizing nozzle for application to plants/insects.
Cotton plants at the cotyledon stage (one plant per pot) were sprayed by an automated electrostatic plant sprayer equipped with an atomizing spray nozzle. The plants were dried in the sprayer fume hood and then removed from the sprayer. Each pot was placed into a plastic cup and about 10 to 12 whitefly adults (approximately 3-5 days old) were introduced. The insects were collected using an aspirator and a nontoxic Tygon® tubing connected to a barrier pipette tip. The tip, containing the collected insects, was then gently inserted into the soil containing the treated plant, allowing insects to crawl out of the tip to reach the foliage for feeding. Cups were covered with a reusable screened lid. Test plants were maintained in a growth room at about 25° C. and about 20-40% relative humidity for 3 days, avoiding direct exposure to fluorescent light (24 hour photoperiod) to prevent trapping of heat inside the cup. Mortality was assessed 3 days after treatment, compared to untreated control plants.

Compound	mortality at 800 ppm [1]	mortality at 500 ppm [2]	mortality at 800 ppm [3]	mortality at 800 ppm [4]	mortality at 300 ppm [5]	mortality at 500 ppm [6]	mortality at 300 ppm [7]
CC(C)c1ccccc1NC(=S)N/N=C/c1ccc2c(C(=N)Nc3ccc(OC(F)(F)F)cc3)nn(C)c2c1 [Example C-1, 1-(2-isopropylphenyl)-3-[(E)-[1-methyl-3-[N-[4(trifluoromethoxy)phenyl]carbamimidoyl]indazol-6-yl]methyleneamino]thiourea]	≥ 75%	≥ 75%	≥ 75%	≥ 50%	≥ 75%	≥ 75%	≥ 75%
CC(C)c1ccccc1N1C(=O)CS/C1=N/N=C/c1ccc2c(C(=N)Nc3ccc(OC(F)(F)F)cc3)nn(C)c2c1 [Example C-2, 6-[(E)-[(E)-[3-(2-isopropylphenyl)-4-oxo-thiazolidin-2-ylidene]hydrazono]methyl]-1-methyl-N-[4-(trifluoromethoxy)phenyl]indazole-3-carboxamidine]	≥ 75%	≥ 75%	≥ 75%	≥ 50%	≥ 75%	≥ 75%	≥ 75%
CC(C)c1ccccc1/N=C1\SCC(=O)N1/N=C/c1ccc2c(C(N)=Nc3ccc(OC(F)(F)F)cc3)nsc2c1 [Example C-28, 6-[(E)-[(2Z)-2-(2-isopropylphenyl)imino-4-oxo-thiazolidin-3-yl]iminomethyl]-N′-[4-(trifluoromethoxy)phenyl]-1,2-benzothiazole-3-carboxamidine]	≥ 75%	≥ 75%	≥ 75%	≥ 50%	≥ 75%	≥ 75%	≥ 75%
CSC(=N/N=C/c1ccc2c(C(=N)Nc3ccc(OC(F)(F)F)cc3)nn(C)c2c1)Nc1ccccc1C(C)C [Example C-35, 1-(2-isopropylphenyl)-2-methyl-3-[(E)-[1-methyl-3-[N-[4-(trifluoromethoxy)phenyl]carbamimidoyl]indazol-6-yl]methyleneamino]isothiourea]	≥ 75%	≥ 75%	≥ 75%	≥ 50%	≥ 75%	≥ 75%	≥ 75%
CC(C)c1ccccc1NC(=S)N/N=C/c1ccc2c(NC(=N)c3ccc(OC(F)(F)F)cc3)nn(C)c2c1 [Example C-38, 1-(2-isopropylphenyl)-3-[(E)-[1-methyl-3-[[4-(trifluoromethoxy)benzenecarboximidoyl]amino]indazol-6-yl]methyleneamino]thiourea]	≥ 75%	≥ 75%	≥ 75%	≥ 50%	≥ 75%	≥ 75%	≥ 75%
CC(C)c1ccccc1N1C(=O)CS/C1=N\N=C\c1ccc2c(NC(=N)c3ccc(OC(F)(F)F)cc3)nn(C)c2c1 [Example C-39, N-[6-[(E)-[(Z)-[3-(2-isopropylphenyl)-4-oxo-thiazolidin-2-ylidene]hydrazono]methyl]-1-methyl-indazol-3-yl]-4-(trifluoromethoxy)benzamidine]	≥ 75%	≥ 75%	≥ 75%	≥ 50%	≥ 75%	≥ 75%	≥ 75%
